Test results published in ChEMBL document CHEMBL1201862, “PubChem BioAssay data set” (2004).
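Test compounds were applied to cells in 96-well plates for 48 hours at 5 doses. GI50 marks 50% less growth.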 Active and inactive are the calls of the source. Rule as the data show it: active = GI50 up to about 1.1 µM and inactive = higher.

Legend:
Experiment in all cases: NCI tumour cell line growth inhibition, 48 h
786-0 = test system: 786-0
A498 = test system: A498
A549 = test system: A549
ACHN = test system: ACHN
CAKI-1 = test system: CAKI-1
CCRF-CEM = test system: CCRF-CEM
COLO 205 = test system: COLO 205
DLD-1 = test system: DLD-1
DMS-114 = test system: DMS-114
DMS-273 = test system: DMS-273
EKVX = test system: EKVX
HCC 2998 = test system: HCC 2998
HCT-116 = test system: HCT-116
HL-60 = test system: HL-60
HOP-62 = test system: HOP-62
HOP-92 = test system: HOP-92
HT-29 = test system: HT-29
IGROV-1 = test system: IGROV-1
K562 = test system: K562
KM-20L2 = test system: KM-20L2
KM12 = test system: KM12
LOX IMVI = test system: LOX IMVI
LXFL 529 = test system: LXFL 529
M14 = test system: M14
M19-MEL = test system: M19-MEL
MOLT-4 = test system: MOLT-4
Malme-3M = test system: Malme-3M
NCI-H226 = test system: NCI-H226
NCI-H23 = test system: NCI-H23
NCI-H460 = test system: NCI-H460
NCI-H522 = test system: NCI-H522
OVCAR-3 = test system: OVCAR-3
OVCAR-4 = test system: OVCAR-4
OVCAR-5 = test system: OVCAR-5
OVCAR-8 = test system: OVCAR-8
RPMI-8226 = test system: RPMI-8226
RXF 393 = test system: RXF 393
SF-268 = test system: SF-268
SF-295 = test system: SF-295
SF-539 = test system: SF-539
SK-MEL-28 = test system: SK-MEL-28
SK-MEL-2 = test system: SK-MEL-2
SK-MEL-5 = test system: SK-MEL-5
SK-OV-3 = test system: SK-OV-3
SN12C = test system: SN12C
SNB-19 = test system: SNB-19
SNB-75 = test system: SNB-75
SNB-78 = test system: SNB-78
SR = test system: SR
SW-620 = test system: SW-620
TK-10 = test system: TK-10
U-251 = test system: U-251
UACC-257 = test system: UACC-257
UACC-62 = test system: UACC-62
UO-31 = test system: UO-31

Measured: GI50

NC(=O)c1ncn(C2OC(CO)C(O)C2O)c1NC(=S)NC(=O)c1ccccc1 (stereo not given)
inactive: 786-0 > 100 µM | A498 > 100 µM | A549 > 100 µM | ACHN > 100 µM | CAKI-1 > 100 µM | CCRF-CEM > 100 µM | COLO 205 > 100 µM | DLD-1 > 100 µM | DMS-114 > 100 µM | DMS-273 > 100 µM | EKVX > 100 µM | HCC 2998 > 100 µM | HCT-116 > 100 µM | HL-60 > 100 µM | HOP-62 > 100 µM | HOP-92 > 100 µM | HT-29 > 100 µM | IGROV-1 > 100 µM | K562 > 100 µM | KM-20L2 > 100 µM | KM12 > 100 µM | LOX IMVI > 100 µM | LXFL 529 > 100 µM | M14 > 100 µM | M19-MEL > 100 µM | MOLT-4 > 100 µM | Malme-3M > 100 µM | NCI-H226 > 100 µM | NCI-H23 > 100 µM | NCI-H460 > 100 µM | NCI-H522 > 100 µM | OVCAR-3 > 100 µM | OVCAR-4 > 100 µM | OVCAR-5 > 100 µM | OVCAR-8 > 100 µM | RPMI-8226 > 100 µM | RXF 393 > 100 µM | SF-268 > 100 µM | SF-295 > 100 µM | SF-539 > 100 µM | SK-MEL-28 > 100 µM | SK-MEL-2 > 100 µM | SK-MEL-5 > 100 µM | SK-OV-3 > 100 µM | SN12C > 100 µM | SNB-19 > 100 µM | SNB-75 > 100 µM | SNB-78 > 100 µM | SR > 100 µM | SW-620 > 100 µM | TK-10 > 100 µM | U-251 > 100 µM | UACC-257 > 100 µM | UACC-62 > 100 µM | UO-31 > 100 µM
